Test results from patent EP4635500A1, “THERAPEUTIC AGENT FOR BACTERIAL INFECTION” (Sumitomo Pharma Co., Ltd., priority 2022, dated 2024).
≈ marks a conversion by molar mass, not a printed value. Like-named read-outs stand apart in the source and are kept apart here.

Experiments:
Assay type in all cases: cell-based
Enterobacter cloacae = assay: MIC, broth microdilution, standard strains and Japanese clinical isolates (Example 5, Table 4)
CRE and CPE strains = assay: MIC, broth microdilution, standard strains and Japanese clinical isolates (Example 5, Table 4 continued; organism of each KUB strain not given)
Klebsiella pneumoniae = assay: MIC, broth microdilution, standard strains and Japanese clinical isolates (Example 5, Table 4)
Enterobacter hormaechei = assay: as above; conditions: ATCCBAA2082; KUB4001 Enterobacter hormaechei ATCC BAA-2082, KPC-2
Providencia rettgeri = assay: as above; conditions: ATCCBAA2525; KUB4010 Providencia rettgeri ATCC BAA-2525, OXA-181
Escherichia coli = assay: as above

## CC(C)(O/N=C(\C(=O)N[C@@H]1C(=O)N2C(C(=O)[O-])=C(C[n+]3ccccc3)CS[C@H]12)c1csc(N)n1)C(=O)O [CAZ, ceftazidime]
Enterobacter cloacae; ATCCBAA2341, KUB4002 Enterobacter cloacae ATCC BAA-2341, KPC-3
  MIC: > 32 µg/mL
Enterobacter cloacae; ATCCBAA2468, KUB4006 Enterobacter cloacae ATCC BAA-2468, NDM-1
  MIC: > 32 µg/mL
CRE and CPE strains; strain KUB3148, carbapenemase gene KPC-3, read-out: MIC
  MIC: > 32 µg/mL
CRE and CPE strains; strain KUB3149, carbapenemase gene NDM-1, read-out: MIC
  MIC: > 32 µg/mL
CRE and CPE strains; strain KUB3150, carbapenemase gene OXA-48, read-out: MIC
  MIC: 1 µg/mL (≈ 1.83 µM)
CRE and CPE strains; strain KUB3151, carbapenemase gene IMP-1, read-out: MIC
  MIC: > 32 µg/mL
CRE and CPE strains; strain KUB3152, carbapenemase gene KPC-2, read-out: MIC
  MIC: 32 µg/mL (≈ 58.5 µM)
CRE and CPE strains; strain KUB3153, carbapenemase gene KPC-3, read-out: MIC
  MIC: > 32 µg/mL
CRE and CPE strains; strain KUB3154, carbapenemase gene KPC-2, read-out: MIC
  MIC: 32 µg/mL (≈ 58.5 µM)
CRE and CPE strains; strain KUB3158, carbapenemase gene OXA-48
  MIC: 0.5 µg/mL (≈ 0.915 µM)
CRE and CPE strains; strain KUB3169, carbapenemase gene Unidentified
  MIC: 8 µg/mL (≈ 14.6 µM)
CRE and CPE strains; strain KUB3170, carbapenemase gene Unidentified
  MIC: 8 µg/mL (≈ 14.6 µM)
CRE and CPE strains; strain KUB3171, carbapenemase gene -
  MIC: 8 µg/mL (≈ 14.6 µM)
Klebsiella pneumoniae; ATCCBAA1898, KUB3996 Klebsiella pneumoniae ATCC BAA-1898, KPC-2
  MIC: > 32 µg/mL
Klebsiella pneumoniae; ATCCBAA1899, KUB3997 Klebsiella pneumoniae ATCC BAA-1899, KPC-2
  MIC: > 32 µg/mL
Klebsiella pneumoniae; ATCCBAA1900, KUB3998 Klebsiella pneumoniae ATCC BAA-1900, KPC-3
  MIC: > 32 µg/mL
Klebsiella pneumoniae; ATCCBAA1904, KUB3999 Klebsiella pneumoniae ATCC BAA-1904, KPC-3
  MIC: 16 µg/mL (≈ 29.3 µM)
Klebsiella pneumoniae; ATCCBAA2078, KUB4000 Klebsiella pneumoniae ATCC BAA-2078, KPC-3
  MIC: > 32 µg/mL
Klebsiella pneumoniae; ATCCBAA2146, KUB4011 Klebsiella pneumoniae ATCC BAA-2146, NDM-1
  MIC: > 32 µg/mL
Klebsiella pneumoniae; ATCCBAA2342, KUB4003 Klebsiella pneumoniae ATCC BAA-2342, KPC-3
  MIC: > 32 µg/mL
Klebsiella pneumoniae; ATCCBAA2343, KUB4004 Klebsiella pneumoniae ATCC BAA-2343, KPC-3
  MIC: > 32 µg/mL
Klebsiella pneumoniae; ATCCBAA2472, KUB4008 Klebsiella pneumoniae subsp. Pneumoniae ATCC BAA-2472, NDM-1
  MIC: > 32 µg/mL
Klebsiella pneumoniae; ATCCBAA2473, KUB4009 Klebsiella pneumoniae ATCC BAA-2473, NDM-1
  MIC: > 32 µg/mL
Klebsiella pneumoniae; KUB3631 Klebsiella pneumoniae Clinical isolate, IMP-1
  MIC: > 32 µg/mL
Klebsiella pneumoniae; KUB3633 Klebsiella pneumoniae Clinical isolate, IMP-6
  MIC: 32 µg/mL (≈ 58.5 µM)
Klebsiella pneumoniae; KUB3634 Klebsiella pneumoniae Clinical isolate, IMP-6
  MIC: 16 µg/mL (≈ 29.3 µM)
Klebsiella pneumoniae; KUB3635 Klebsiella pneumoniae Clinical isolate, IMP-1
  MIC: > 32 µg/mL
Enterobacter hormaechei
  MIC: > 32 µg/mL
Providencia rettgeri
  MIC: > 32 µg/mL
Escherichia coli; ATCCBAA2452, KUB4005 Escherichia coli ATCC BAA-2452, NDM-1
  MIC: > 32 µg/mL
Escherichia coli; ATCCBAA2471, KUB4007 Escherichia coli ATCC BAA-2471, NDM-6
  MIC: > 32 µg/mL
